US10562887B2, “Triazolones and tetrazolones as inhibitors of ROCK” (BRISTOL-MYERS SQUIBB COMPANY, priority 2016, dated 2020)

molecular target: ROCK2 (Homo sapiens (Human), UniProt O75116); test: ROCK2 assay (peptide phosphorylation, LABCHIP 3000 Reader); format: biochemical; conditions: 5 μM ATP, 1.5 μM peptide substrate
How it was run: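 Human ROCK2 reaction in 20 mM HEPES pH 7.5, 20 mM MgCl2, 0.015% Brij-35, 4 mM DTT, with 5 μM ATP and 1.5 μM FITC-labelled peptide, DMSO <2%. Stopped with EDTA; phosphorylated and unphosphorylated peptide separated by microfluidic mobility shift. IC50 from dose-response curve fit.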

Sequence of ROCK2 (O75116 whole entry, species assumed): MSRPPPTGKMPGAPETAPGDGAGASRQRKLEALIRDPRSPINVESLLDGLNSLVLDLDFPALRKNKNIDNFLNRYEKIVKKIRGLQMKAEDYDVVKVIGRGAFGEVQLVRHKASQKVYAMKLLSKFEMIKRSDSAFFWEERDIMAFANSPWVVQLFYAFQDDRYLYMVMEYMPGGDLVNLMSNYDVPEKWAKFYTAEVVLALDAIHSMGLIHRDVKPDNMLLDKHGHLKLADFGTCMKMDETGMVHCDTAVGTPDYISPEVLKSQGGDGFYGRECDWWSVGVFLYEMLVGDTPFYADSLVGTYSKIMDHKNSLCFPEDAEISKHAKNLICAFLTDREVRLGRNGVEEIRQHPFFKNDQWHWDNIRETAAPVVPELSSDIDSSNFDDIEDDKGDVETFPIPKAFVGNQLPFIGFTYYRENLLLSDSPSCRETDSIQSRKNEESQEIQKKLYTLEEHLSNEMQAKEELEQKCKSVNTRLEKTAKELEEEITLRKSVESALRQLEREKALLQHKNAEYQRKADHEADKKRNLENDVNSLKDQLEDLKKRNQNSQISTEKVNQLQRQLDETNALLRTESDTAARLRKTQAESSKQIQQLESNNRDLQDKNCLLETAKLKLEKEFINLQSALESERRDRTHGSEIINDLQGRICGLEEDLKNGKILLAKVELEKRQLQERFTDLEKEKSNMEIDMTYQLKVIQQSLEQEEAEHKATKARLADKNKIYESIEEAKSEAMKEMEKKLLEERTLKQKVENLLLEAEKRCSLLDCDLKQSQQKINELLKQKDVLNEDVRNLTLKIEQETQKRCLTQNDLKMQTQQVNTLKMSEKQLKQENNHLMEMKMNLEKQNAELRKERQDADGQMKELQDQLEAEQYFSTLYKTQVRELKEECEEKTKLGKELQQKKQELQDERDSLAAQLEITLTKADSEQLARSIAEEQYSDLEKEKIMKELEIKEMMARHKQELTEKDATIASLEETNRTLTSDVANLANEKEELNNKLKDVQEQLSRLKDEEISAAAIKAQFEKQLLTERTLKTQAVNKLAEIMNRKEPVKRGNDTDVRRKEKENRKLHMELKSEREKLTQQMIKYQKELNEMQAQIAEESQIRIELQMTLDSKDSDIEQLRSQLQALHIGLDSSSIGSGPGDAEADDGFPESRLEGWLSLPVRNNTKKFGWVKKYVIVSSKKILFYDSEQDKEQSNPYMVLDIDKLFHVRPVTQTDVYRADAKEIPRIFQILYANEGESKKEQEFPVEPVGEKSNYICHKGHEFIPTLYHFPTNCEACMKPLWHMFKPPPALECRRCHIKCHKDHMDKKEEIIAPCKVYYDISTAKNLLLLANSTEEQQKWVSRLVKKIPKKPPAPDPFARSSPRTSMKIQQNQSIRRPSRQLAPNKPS

IC50 [nM] | Compound
250 to 2000 | CCc1cc(-n2nc(C)n(C(C)c3ccccc3)c2=O)ccc1-c1cn[nH]c1 (stereo not drawn) [Example 109, 1-(3-ethyl-4-(1H-pyrazol-4-yl)phenyl)-3-methyl-4-(1-phenylethyl)-1H-1,2,4-triazol-5(4H)-one]
250 to 2000 | CCc1cc(-n2nc(C)n(CCc3ccccc3)c2=O)ccc1-c1cn[nH]c1 [Example 110, 1-(3-ethyl-4-(1H-pyrazol-4-yl)phenyl)-3-methyl-4-phenethyl-1H-1,2,4-triazol-5(4H)-one]
250 to 2000 | CCc1cc(-n2nc(C)n(Cc3cccc(C#N)c3)c2=O)ccc1-c1cn[nH]c1 [Example 111, 3-((1-(3-ethyl-4-(1H-pyrazol-4-yl)phenyl)-3-methyl-5-oxo-1H-1,2,4-triazol-4(5H)-yl)methyl)benzonitrile]
50 to 250 | CCc1cc(-n2nc(C)n(Cc3cccc(OC(F)F)c3)c2=O)ccc1-c1cn[nH]c1 [Example 112, 4-(3-(difluoromethoxy)benzyl)-1-(3-ethyl-4-(1H-pyrazol-4-yl)phenyl)-3-methyl-1H-1,2,4-triazol-5(4H)-one]
50 to 250 | CCc1cc(-n2nc(C)n(Cc3ccccc3F)c2=O)ccc1-c1cn[nH]c1 [Example 113, 1-(3-ethyl-4-(1H-pyrazol-4-yl)phenyl)-4-(2-fluorobenzyl)-3-methyl-1H-1,2,4-triazol-5(4H)-one]
250 to 2000 | CCc1cc(-n2nc(C)n(Cc3ccc(F)cc3)c2=O)ccc1-c1cn[nH]c1 [Example 114, 1-(3-ethyl-4-(1H-pyrazol-4-yl)phenyl)-4-(4-fluorobenzyl)-3-methyl-1H-1,2,4-triazol-5(4H)-one]
5 to 50 | CCc1cc(-n2nc(C)n(Cc3cc(F)cc(OC)c3)c2=O)ccc1-c1cn[nH]c1 [Example 115, 1-(3-ethyl-4-(1H-pyrazol-4-yl)phenyl)-4-(3-fluoro-5-methoxybenzyl)-3-methyl-1H-1,2,4-triazol-5(4H)-one]
250 to 2000 | CCc1cc(-n2nc(C)n(Cc3c(F)cccc3F)c2=O)ccc1-c1cn[nH]c1 [Example 116, 4-(2,6-difluorobenzyl)-1-(3-ethyl-4-(1H-pyrazol-4-yl)phenyl)-3-methyl-1H-1,2,4-triazol-5(4H)-one]
5 to 50 | CCc1cc(-n2nc(C)n(Cc3ccccc3)c2=O)ccc1-c1cn[nH]c1 [Example 117, 4-benzyl-1-(3-ethyl-4-(1H-pyrazol-4-yl)phenyl)-3-methyl-1H-1,2,4-triazol-5(4H)-one]
250 to 2000 | COc1cc(Cn2c(C)nn(-c3ccc(-c4cn[nH]c4)cc3)c2=O)cc(OC)c1 [Example 120, 1-(4-(1H-pyrazol-4-yl)phenyl)-4-(3,5-dimethoxybenzyl)-3-methyl-1H-1,2,4-triazol-5(4H)-one]
< 5 | COc1cc(Cn2c(C)nn(-c3ccc(-c4cn[nH]c4)cc3)c2=O)ccc1F [Example 121, 1-(4-(1H-pyrazol-4-yl)phenyl)-4-(4-fluoro-3-methoxybenzyl)-3-methyl-1H-1,2,4-triazol-5(4H)-one]
250 to 2000 | COc1cccc(Cn2c(C)nn(-c3ccc(-c4cn[nH]c4)cc3)c2=O)c1F [Example 122, 1-(4-(1H-pyrazol-4-yl)phenyl)-4-(2-fluoro-3-methoxybenzyl)-3-methyl-1H-1,2,4-triazol-5(4H)-one]
50 to 250 | COc1ccc(F)cc1Cn1c(C)nn(-c2ccc(-c3cn[nH]c3)cc2)c1=O [Example 123, 1-(4-(1H-pyrazol-4-yl)phenyl)-4-(5-fluoro-2-methoxybenzyl)-3-methyl-1H-1,2,4-triazol-5(4H)-one]
250 to 2000 | COc1ccc(Cn2c(C)nn(-c3ccc(-c4cn[nH]c4)cc3)c2=O)cc1F [Example 124, 1-(4-(1H-pyrazol-4-yl)phenyl)-4-(3-fluoro-4-methoxybenzyl)-3-methyl-1H-1,2,4-triazol-5(4H)-one]
< 5 | COc1cccc(Cn2c(CO)nn(-c3ccc(-c4cn[nH]c4)cc3)c2=O)c1 [Example 125, 1-(4-(1H-pyrazol-4-yl)phenyl)-3-(hydroxymethyl)-4-(3-methoxybenzyl)-1H-1,2,4-triazol-5(4H)-one]
5 to 50 | O=c1n(-c2ccc(-c3cn[nH]c3)cc2)nc(CO)n1Cc1ccccc1 [Example 126, 1-(4-(1H-pyrazol-4-yl)phenyl)-4-benzyl-3-(hydroxymethyl)-1H-1,2,4-triazol-5(4H)-one]
50 to 250 | COc1cc(Cn2c(CO)nn(-c3ccc(-c4cn[nH]c4)cc3)c2=O)cc(OC)c1 [Example 127, 1-(4-(1H-pyrazol-4-yl)phenyl)-4-(3,5-dimethoxybenzyl)-3-(hydroxymethyl)-1H-1,2,4-triazol-5(4H)-one]
5 to 50 | O=c1n(-c2ccc(-c3cn[nH]c3)cc2)nc(CO)n1Cc1cccc(F)c1 [Example 128, 1-(4-(1H-pyrazol-4-yl)phenyl)-4-(3-fluorobenzyl)-3-(hydroxymethyl)-1H-1,2,4-triazol-5(4H)-one]
5 to 50 | O=c1n(-c2ccc(-c3cn[nH]c3)cc2)nc(CO)n1Cc1cc(F)ccc1F [Example 129, 1-(4-(1H-pyrazol-4-yl)phenyl)-4-(2,5-difluorobenzyl)-3-(hydroxymethyl)-1H-1,2,4-triazol-5(4H)-one]
5 to 50 | O=c1n(-c2ccc(-c3cn[nH]c3)cc2)nc(CO)n1Cc1cc(F)cc(F)c1 [Example 130, 1-(4-(1H-pyrazol-4-yl)phenyl)-4-(3,5-difluorobenzyl)-3-(hydroxymethyl)-1H-1,2,4-triazol-5(4H)-one]
5 to 50 | O=c1n(-c2ccc(-c3cn[nH]c3)cc2)nc(CO)n1Cc1cccc(OC(F)F)c1 [Example 131, 1-(4-(1H-pyrazol-4-yl)phenyl)-4-(3-(difluoromethoxy)benzyl)-3-(hydroxymethyl)-1H-1,2,4-triazol-5(4H)-one]
50 to 250 | N#Cc1cccc(Cn2c(CO)nn(-c3ccc(-c4cn[nH]c4)cc3)c2=O)c1 [Example 132, 3-((1-(4-(1H-pyrazol-4-yl)phenyl)-3-(hydroxymethyl)-5-oxo-1H-1,2,4-triazol-4(5H)-yl)methyl)benzonitrile]
5 to 50 | CC(C)(O)c1nn(-c2ccc(-c3cn[nH]c3)cc2)c(=O)n1Cc1ccccc1 [Example 133, 1-(4-(1H-pyrazol-4-yl)phenyl)-4-benzyl-3-(2-hydroxypropan-2-yl)-1H-1,2,4-triazol-5(4H)-one]
< 5 | COc1cccc(Cn2c(C(C)(C)O)nn(-c3ccc(-c4cn[nH]c4)cc3)c2=O)c1 [Example 134, 1-(4-(1H-pyrazol-4-yl)phenyl)-3-(2-hydroxypropan-2-yl)-4-(3-methoxybenzyl)-1H-1,2,4-triazol-5(4H)-one]
5 to 50 | CC(C)(O)c1nn(-c2ccc(-c3cn[nH]c3)cc2)c(=O)n1Cc1cccc(F)c1 [Example 135, 1-(4-(1H-pyrazol-4-yl)phenyl)-4-(3-fluorobenzyl)-3-(2-hydroxypropan-2-yl)-1H-1,2,4-triazol-5(4H)-one]
50 to 250 | CC(C)(O)c1nn(-c2ccc(-c3cn[nH]c3)cc2)c(=O)n1Cc1cc(F)ccc1F [Example 136, 1-(4-(1H-pyrazol-4-yl)phenyl)-4-(2,5-difluorobenzyl)-3-(2-hydroxypropan-2-yl)-1H-1,2,4-triazol-5(4H)-one]
5 to 50 | CC(C)(O)c1nn(-c2ccc(-c3cn[nH]c3)cc2)c(=O)n1Cc1cc(F)cc(F)c1 [Example 137, 1-(4-(1H-pyrazol-4-yl)phenyl)-4-(3,5-difluorobenzyl)-3-(2-hydroxypropan-2-yl)-1H-1,2,4-triazol-5(4H)-one]
